This note sets out measurements from patent US20240382600A1, “BIFUNCTIONAL DEGRADERS COMPRISING A TEAD BINDER” (Novartis AG, priority 2021, published 2024).

SMILES strings stand for the structures.

Assay [1] deals with YAP-dependent transcription in SF268-MCAT_Luc_dox-i-shYAPLevy (Clone 13) cells. Put plainly: YAP reporter gene activity assay (MCAT-Luc), SF268. It counts as cell-based. The conditions noted are these: Homo sapiens, SF-268; SF268 MCAT_Luc, 24 hrs.
Assay [2] concerns the target Avi-humanTEAD4^217-434 / Cy5 labeled humanYAP^60-100 (Homo sapiens (Human), UniProt Q15561). Put plainly: In-vitro biochemical TR-FRET assay (TEAD4/YAP). Format: binding. The conditions noted are these: 1 h at room temperature.
The test system of assay [3] is YAP-dependent transcription in NCI-H2052 Tet-On shYAP_2371 pLenti6 MCAT_Luc cells. Put plainly: YAP reporter gene activity assay (MCAT-Luc), NCI-H2052. Format: cell-based. Conditions: Homo sapiens, 24 hrs.
Assay [4] concerns MKN-45/Ubc-luc cells (unspecific inhibition of luciferase expression or activity). Description: Reporter gene assay specificity control (Ubc-Luc), MKN-45. Format: cell-based. Conditions: Homo sapiens; MKN-45/Ubc-luc specificity control, 24 hrs. In a few lines: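 MKN-45 cells stably carrying a ubiquitin C promoter–firefly luciferase construct, treated the day after seeding with eleven 2-fold compound dilutions (0.1% DMSO final) for 24 hrs at 37° C. Luminescence read 5 min after Steady Glo addition; cell-free background subtracted, as a control for nonspecific luciferase inhibition.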

Assay [5] concerns SF268-MCAT_Luc_dox-i-shYAPLevy (Clone 13) cells. Description: Proliferation assay (resazurin/AlamarBlue), SF268. The conditions noted are these: Homo sapiens, SF-268; SF268, 72 hours. It counts as cell-based.
Another assay concerns MKN-45/Ubc-luc cells. Put plainly: Proliferation assay (resazurin/AlamarBlue), MKN-45. It counts as cell-based. The conditions noted are these: Homo sapiens; MKN-45, 72 hours. In a few lines:
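MKN-45 cells carrying constitutive Ubc-driven luciferase reporter, treated the day after seeding with eleven 2-fold dilutions (0.1% DMSO) for 72 h at 37 °C. Viability by resazurin, referenced to day-0 plate; GI50 from % growth (100 none, 0 stasis, −100 kill) and residual viability at top concentration.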

Assay [6] deals with TEAD1-GFP in HEK293A cells (Homo sapiens (Human), UniProt P28347). Description: TEAD1 protein abundance flow cytometry assay in HEK293A. Format: cell-based. The conditions noted are these: HEK293A TEAD1-GFP-CHYSEL-mCherry sensor cells, 24 h, GFP signal by flow cytometry. On the procedure: Degradation of TEAD1 was measured in HEK293A cells (Invitrogen R70507) expressing TEAD1-GFP and mCherry from a stably integrated bicistronic TEAD1-GFP-CHYSEL-mCherry construct. Reduction of the GFP signal measured by flow cytometry served as readout for TEAD1 degradation after degrader treatment.
Chain of TEAD1-GFP in HEK293A cells (P28347 whole entry): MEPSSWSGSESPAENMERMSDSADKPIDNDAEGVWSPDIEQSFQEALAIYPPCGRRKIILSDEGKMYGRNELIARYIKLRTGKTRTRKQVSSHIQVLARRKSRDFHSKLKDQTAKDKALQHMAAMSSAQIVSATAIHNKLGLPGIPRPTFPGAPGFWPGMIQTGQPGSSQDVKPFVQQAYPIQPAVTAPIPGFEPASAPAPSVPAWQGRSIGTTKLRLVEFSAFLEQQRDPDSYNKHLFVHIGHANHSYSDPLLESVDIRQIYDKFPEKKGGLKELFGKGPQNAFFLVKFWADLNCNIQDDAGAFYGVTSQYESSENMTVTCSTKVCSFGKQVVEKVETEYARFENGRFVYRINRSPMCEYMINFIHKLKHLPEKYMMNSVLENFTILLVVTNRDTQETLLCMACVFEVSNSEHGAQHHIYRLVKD
Stable HEK293A sensor cells were maintained in complete growth medium (DMEM high Glucose+10% FCS+1% L-Glutamine+1% NEAA+1% NaPyr.+4 μg/mL blasticidin) with passaging performed twice per week. On Day 0, stable HEK293A sensor cells were seeded at 5,000 cells/well in a 96-well microtiter plate in 100 μL complete medium. On Day 1, cells were treated in duplicate with 10-point 1:3 dilution series of compound using the HP D300 Digital Dispenser (Tecan). DMSO concentrations were normalized across the plate to 0.1%. On Day 2, after 24 h of incubation at 37° C., treatment media was discarded, cells rinsed with 100 μL/well PBS and then detached using 40 μL trypsin/well for 5 min. Trypsin was neutralized with 100 μL/well PBS+20% FCS).
Flow cytometry was performed on the samples using the CytoFlex S (Beckman Coulter). Cell identification was then performed using forward (FSC) vs. side scatter (SSC) plots. Single cell discrimination was performed using SSC-Width (SSC-W) vs. SSC-Height (SSCH) plots. Median GFP values for 2,500 single cells were used to determine TEAD1 levels. Median GFP values from HEK293A were used as a background signal and thus defining 0% TEAD1 signal. Median GFP values from DMSO treated HEK293A TEAD1-GFP CHYSEL-mCherry were used to define 100%
TEAD1 signal for subsequent DC50 curves (concentration at 50% TAED1 degradation). GFP and RFP were read in the channels called FITC and PE, respectively. Concentration response curves plotting relative reduction of the GFP signal (measured by flow cytometry) versus 10 compound concentrations (starting concentration 10 μM, 3 fold dilution steps) of the compounds allowed generation of DC50 values.

Assay [7] concerns NCI-H2052 Tet-On shYAP_2371 pLenti6 MCAT_Luc cells. Description: Proliferation assay (resazurin/AlamarBlue), NCI-H2052. Conditions: Homo sapiens; NCI-H2052, 72 hours. It counts as cell-based.

Chain of Avi-humanTEAD4^217-434 / Cy5 labeled humanYAP^60-100 (Q15561 217-434): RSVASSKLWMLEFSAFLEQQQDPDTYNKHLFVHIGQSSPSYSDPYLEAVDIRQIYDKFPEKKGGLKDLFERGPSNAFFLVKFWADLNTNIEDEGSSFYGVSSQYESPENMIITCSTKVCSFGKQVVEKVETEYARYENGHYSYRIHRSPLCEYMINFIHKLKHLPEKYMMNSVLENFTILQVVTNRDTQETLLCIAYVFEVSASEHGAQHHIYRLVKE

On to `COc1ccc(C(=O)N2CCN(CC3CCN(C(=O)[C@H]4CC[C@H](NC[C@]5(c6ccccc6)Oc6cc(F)c(Cl)c(-c7c(C(N)=O)ccc(OC)c7F)c6[C@@H]5C)CC4)CC3)CC2)cc1N1CCC(=O)NC1=O` (atropisomer, axis not shown) [Example 6, 2-((2S,3S,4S)-5-chloro-2-((((1r,4S)-4-(4-((4-(3-(2,4-dioxotetrahydropyrimidin-1(2H)-yl)-4-methoxybenzoyl)piperazin-1-yl)methyl)piperidine-1-carbonyl)cyclohexyl)amino)methyl)-6-fluoro-3-methyl-2-phenyl-2,3-dihydrobenzofuran-4-yl)-3-fluoro-4-methoxybenzamide], for which the IC50 was 0.5 nM in assay [1], 1.5 nM in assay [2], 16 nM in assay [3] and above 20000 nM in assay [4]. In addition, the 50% growth inhibitory concentration (GI50) in assay [5] was 39 nM; with MKN-45/Ubc-luc cells it was above 20000 nM; in assay [7], 61 nM. The compound also came in with a DC50 in assay [6] of 2 nM.
In the case of `COc1ccc(C(=O)N2CCC3(CCN(CCNC(=O)[C@H]4CC[C@H](NC[C@]5(c6ccccc6)Oc6cc(F)c(Cl)c(-c7c(C(N)=O)ccc(OC)c7F)c6[C@@H]5C)CC4)CC3)CC2)cc1N1CCC(=O)NC1=O` (atropisomer, axis not shown) [Example 5, 2-((2S,3S,4S)-5-chloro-2-((((1r,4S)-4-((2-(9-(3-(2,4-dioxotetrahydropyrimidin-1(2H)-yl)-4-methoxybenzoyl)-3,9-diazaspiro[5.5]undecan-3-yl)ethyl)carbamoyl)cyclohexyl)amino)methyl)-6-fluoro-3-methyl-2-phenyl-2,3-dihydrobenzofuran-4-yl)-3-fluoro-4-methoxybenzamide], the IC50 in assay [1] was 2.5 nM; in assay [2], below 1 nM; in assay [3], 160 nM; in assay [4] it was above 20000 nM. Also, the GI50 is 89 nM in assay [5], above 20000 nM in the assay with MKN-45/Ubc-luc cells and 360 nM in assay [7]. In assay [6], this compound returned a DC50 of 35 nM.
On to `COc1ccc(C(N)=O)c(-c2c(Cl)c(F)cc3c2[C@H](C)[C@@](CN[C@H]2CC[C@H](C(=O)N4CCC(OC5CCN(C(=O)COc6ccc(N7CCC(=O)NC7=O)c(C)c6)CC5)CC4)CC2)(c2ccccc2)O3)c1F` (atropisomer, axis not shown) [Example 14, 2-((2S,3S,4S)-5-chloro-2-((((1r,4S)-4-(4-((1-(2-(4-(2,4-dioxotetrahydropyrimidin-1(2H)-yl)-3-methylphenoxy)acetyl)piperidin-4-yl)oxy)piperidine-1-carbonyl)cyclohexyl)amino)methyl)-6-fluoro-3-methyl-2-phenyl-2,3-dihydrobenzofuran-4-yl)-3-fluoro-4-methoxybenzamide], for which the IC50 in assay [1] is 0.63 nM; in assay [2] it was 1.4 nM; in assay [3], 3.1 nM; in assay [4], above 2000 nM. In addition, the GI50 in assay [5] was 35 nM; with MKN-45/Ubc-luc cells, above 2000 nM; in assay [7] it was 11 nM. The same compound returned a DC50 in assay [6] of 3 nM.
Regarding `COc1ccc(C(=O)N2CCC(CN3CCN(C(=O)[C@H]4CC[C@H](NC[C@]5(c6ccccc6)Oc6cc(F)c(Cl)c(-c7c(C(N)=O)ccc(OC)c7F)c6[C@@H]5C)CC4)CC3)CC2)cc1N1CCC(=O)NC1=O` (atropisomer, axis not shown) [Example 17, 2-((2S,3S,4S)-5-chloro-2-((((1r,4S)-4-(4-((1-(3-(2,4-dioxotetrahydropyrimidin-1(2H)-yl)-4-methoxybenzoyl)piperidin-4-yl)methyl)piperazine-1-carbonyl)cyclohexyl)amino)methyl)-6-fluoro-3-methyl-2-phenyl-2,3-dihydrobenzofuran-4-yl)-3-fluoro-4-methoxybenzamide], the 50% inhibitory concentration (IC50) is 0.85 nM in assay [1], 1 nM in assay [2], 15 nM in assay [3] and above 2000 nM in assay [4]. Besides, the GI50 in assay [5] was 49 nM; in the assay with MKN-45/Ubc-luc cells, above 2000 nM; in assay [7], 62 nM. This compound displayed a DC50 in assay [6] of 4 nM.
Regarding `COc1ccc(C(N)=O)c(-c2c(Cl)c(F)cc3c2[C@H](C)[C@@](CN[C@H]2CC[C@H](C(=O)N4CCC(CC5CCN(C(=O)Cn6cccc(CN7CCC(=O)NC7=O)c6=O)CC5)CC4)CC2)(c2ccccc2)O3)c1F` (atropisomer, axis not shown) [Example 16, 2-((2S,3S,4S)-5-chloro-2-((((1r,4S)-4-(4-((1-(2-(3-((2,4-dioxotetrahydropyrimidin-1(2H)-yl)methyl)-2-oxopyridin-1(2H)-yl)acetyl)piperidin-4-yl)methyl)piperidine-1-carbonyl)cyclohexyl)amino)methyl)-6-fluoro-3-methyl-2-phenyl-2,3-dihydrobenzofuran-4-yl)-3-fluoro-4-methoxybenzamide], the IC50 in assay [1] is 1.2 nM; in assay [2], 1.3 nM; in assay [3], 14 nM; in assay [4], above 2000 nM. Also, the GI50 in assay [5] was 64 nM; in the assay on MKN-45/Ubc-luc cells, above 2000 nM; in assay [7], 52 nM. The same compound yielded a DC50 in assay [6] of 6 nM.
As for `COc1ccc(C(=O)N2CCN(CC3CCN(CCNC(=O)[C@H]4CC[C@H](NC[C@]5(c6ccccc6)Oc6cc(F)c(Cl)c(-c7c(C(N)=O)ccc(OC)c7F)c6[C@@H]5C)CC4)CC3)CC2)cc1N1CCC(=O)NC1=O` (atropisomer, axis not shown) [Example 3, 2-((2S,3S,4S)-5-chloro-2-((((1r,4S)-4-((2-(4-((4-(3-(2,4-dioxotetrahydropyrimidin-1(2H)-yl)-4-methoxybenzoyl)piperazin-1-yl)methyl)piperidin-1-yl)ethyl)carbamoyl)cyclohexyl)amino)methyl)-6-fluoro-3-methyl-2-phenyl-2,3-dihydrobenzofuran-4-yl)-3-fluoro-4-methoxybenzamide], the 50% inhibitory concentration (IC50) in assay [1] was 1.6 nM; in assay [2], below 1 nM; in assay [3], 98 nM; in assay [4], above 20000 nM. Moreover, the values for the GI50 (in assay [5]; with MKN-45/Ubc-luc cells; in assay [7]) were 54 nM, above 20000 nM and 320 nM, respectively. Moreover, the DC50 in assay [6] was found to be 6 nM.
With `COc1ccc(C(=O)N2CCC(CC3CCN(C(=O)[C@H]4CC[C@H](NC[C@]5(c6ccccc6)Oc6cc(F)c(Cl)c(-c7c(C(N)=O)ccc(OC)c7F)c6[C@@H]5C)CC4)CC3)CC2)cc1N1CCC(=O)NC1=O` (atropisomer, axis not shown) [Example 1, 2-((2S,3S,4S)-5-chloro-2-((((1r,4S)-4-(4-((1-(3-(2,4-dioxotetrahydropyrimidin-1(2H)-yl)-4-methoxybenzoyl)piperidin-4-yl)methyl)piperidine-1-carbonyl)cyclohexyl)amino)methyl)-6-fluoro-3-methyl-2-phenyl-2,3-dihydrobenzofuran-4-yl)-3-fluoro-4-methoxybenzamide], the IC50 is 0.3 nM in assay [1], 1.9 nM in assay [2], 3.6 nM in assay [3] and above 20000 nM in assay [4]. Besides, the GI50 in assay [5] was 14 nM; in the assay with MKN-45/Ubc-luc cells, 11000 nM; in assay [7] it was 15 nM. The DC50 in assay [6] came out at 0.6 nM.
